{"source": "patent US20120288495A1", "about": "“THERAPEUTIC COMPOSITIONS AND METHODS” (BIOTHERA, INC., priority 2009, published 2012)", "key": {"[1]": {"tested_on": "HCT-116 colorectal carcinoma", "assay": "LIVE/DEAD cell mediated cytotoxicity assay: PBMC killing of KRAS-mutated tumor cells", "format": "cell-based, human", "experimental": "The tumor target line HCT-116 colorectal carcinoma (American Type Culture Collection, Manassas, Va., ATCC No. CCL-247) was maintained in McCoy's 5A media supplemented with 10% fetal calf serum (Hyclone Laboratories, Inc., Logan, Utah).\nCytotoxicity was measured with the LIVE/DEAD Cell Mediated Cytotoxicity Kit (Invitrogen, Carlsbad, Calif.) according to manufacturer's instructions. Briefly, the HCT-116 target cells were stained with 1:80 dilution of DiOC18 in Phosphate Buffered Saline (PBS, Mediatech Inc. Manassas, Va.) and incubated at 37° C. for 30 minutes. The cells were then washed twice in PBS and resuspended at 2×10^6 cells/mL in complete media containing 10% human serum.\nDiOC labeled target cells incubated with ERBITUX dilutions for 30 minutes at 37° C. In each well of a 96-well plate, 1.25×10^6 freshly isolated peripheral blood mononuclear cells (PBMC) along with IMPRIME-PGG dilution or 50 ng/ml IL-2 (R&D Systems, Minneapolis, Minn.) in of total volume of 100 μl media incubated at 37° C. for 30 minutes. 5×10^4 targets added to wells in 25 μl of media and assay incubated overnight at 37° C. Following incubation, target cell viability measured by staining with 125 μl of propidium iodide (PI) viability reagent diluted 1:5000 from stock solution provided in the assay kit. Cells incubated for 30 minutes at 37° C. before analysis on LSR II flow cytometer (BD Biosciences, San Jose, Calif.) to determine percentage of DiOC stained targets that intercalate the PI stain, indicating cell death."}, "[2]": {"assay": "Physicochemical properties of purified soluble β-glucan", "source_text": "The soluble β-glucan has an average molecular weight between about 120,000 Da and about 205,000 Da and a molecular weight distribution (polydispersity) of not more than 2.5 as determined by HR-GPC with multiple angle light scattering (HR-GPC/MALS) and differential refractive index detection. Powder X-ray diffraction and magic-angle spinning NMR determined that the product consists of polymeric chains associated into triple helices. The soluble β-glucan is typically uncharged and therefore has no pKa."}, "[3]": {"tested_on": "neutrophils and monocytes", "details": "cited from earlier work"}, "[4]": {"tested_on": "IL-1, TNF, and leukotrienes", "details": "cited from earlier work"}}, "data": [{"substance": "poly-(1-6)-β-D-glucopyranosyl-(1-3)-β-D-glucopyranose [soluble β-glucan]", "values": [{"measurement": "ability of human PBMCs to kill KRAS-mutated tumor cells", "setting": "[1]; FIG. 2, flow cytometry data, in vitro", "value": "enhances the ability of human peripheral blood mononuclear cells (PBMCs) to kill KRAS-mutated tumor cells in vitro"}, {"measurement": "ability of human PBMCs to kill KRAS-mutated tumor cells", "setting": "[1]; FIG. 3, in vitro, N=1, E:T=25:1", "value": "enhances the ability of human peripheral blood mononuclear cells (PBMCs) to kill KRAS-mutated tumor cells in vitro"}, {"measurement": "antitumor activity in the presence of an EGF-r antagonist antibody", "setting": "[1]; FIG. 4, with ERBITUX, N=1, E:T=25:1", "value": "exhibits greater antitumor activity in the presence of an EGF-r antagonist antibody"}, {"measurement": "pKa", "setting": "[2]", "value": "has no pKa"}, {"measurement": "solubility in water", "setting": "[2]", "value": "soluble in water independent of pH"}, {"measurement": "number of neutrophils and monocytes and their direct antitumor activity (phagocytosis and microbial killing)", "setting": "[3]", "value": "increase the number of neutrophils and monocytes as well as their direct antitumor activity"}, {"measurement": "production of biochemical mediators (IL-1, TNF, leukotrienes)", "setting": "[4]", "value": "does not stimulate the production of biochemical mediators"}]}]}
